Data reported in publication PMC9225715, “Development of PD3 and PD3-B for PDEδ inhibition to modulate KRAS activity” (Journal of Enzyme Inhibition and Medicinal Chemistry, 2022).

Experiments:
PDEδ = target: T1, PDEδ (Homo sapiens, UniProt O43924); experiment: Native gel electrophoresis with in-gel fluorescence (target specificity); format: binding; settings: 5 or 50 µM PD3, PDEδ-overexpressing bacterial lysate or purified PDEδ, 12% native gel
T1 construct: made in house; host or cells: E. coli BL21(DE3)
T1 sequence (O43924 whole entry): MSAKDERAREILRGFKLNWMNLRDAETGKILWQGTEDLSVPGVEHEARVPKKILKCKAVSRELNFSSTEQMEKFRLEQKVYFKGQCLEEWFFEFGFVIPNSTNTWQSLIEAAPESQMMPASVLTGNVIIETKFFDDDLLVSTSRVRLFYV
Protocol: We also conducted native gel electrophoresis to further verify the specific binding of PD3 to native PDEδ using in-gel fluorescence scanning. […] We assumed that PD3 bound within the tertiary structure would be identified on the native gel. PD3 was incubated with bacterial lysate containing the overexpressed PDEδ protein (Figure 4(C,D), lanes 1–3) or purified PDEδ (Figure 4(C,D), lanes 4–6), and then these samples were run in a native gel to avoid denaturation of the protein. The in-gel fluorescence shown in Figure 4(C) (Ex: 312 nm, Em: 585–625 nm) was compared to the same gel stained with Coomassie that visualised the protein bands (Figure 4(D)), which confirmed the formation of the PD3-target protein complex. As expected, the fluorescence band was detected at the location of PDEδ and only detected in the lane with PD3 (lanes 2, 3, 5, and 6).
PD3 (5 or 50 µM) was added to the bacterial lysate (390 µM) or purified PDEδ protein (22.9 µM) and the mixture was incubated for 2 h at 4 °C. The samples were loaded on each lane and separated by 12% native PAGE in a running buffer [25 mM Tris-HCl (pH 8.0), 500 mM NaCl, 10 mM imidazole, 10% Glycerol] with 1/4 pellet of protease inhibitor (Roche, Penzberg, Upper Bavaria, Germany). The gels were run at 70 V for 2.5 h, followed by in-gel fluorescence measurement. The same gel was stained by Coomassie brilliant blue to visualise protein bands.

PANC-1 cells = experiment: Immunofluorescence staining of RAS localisation; format: cell-based, human; settings: 18 h, anti-pan RAS antibody, PD3 10 µM, deltarasin 2, 5, 10 µM
Source text: Finally, we investigated whether PD3 changes KRAS localisation by inhibiting the interaction of KRAS with PDEδ in human pancreatic cancer cells. PDEδ binds the farnesylated RAS proteins and stabilises them[19]. Therefore, PDEδ activity leads to the accumulation of RAS at the plasma membrane (PM); conversely, downmodulation of PDEδ enhances RAS diffusion in the cytoplasm. To confirm the effect of PD3 on the relocalization of RAS, we carried out immunofluorescence staining of PANC-1 cells with an anti-RAS antibody (Figure 6). […] Conversely, in the DMSO-treated control group, RAS was mainly localised in the PM of PANC-1 cells. […] It is supposed that PD3 can induce changes in RAS localisation from the plasma membrane by interrupting the protein–protein interaction of KRAS-PDEδ.
Figure 6. Immunofluorescence of PANC-1 cells with an anti-Pan-RAS antibody (red). DMSO was used as a negative control, and deltarasin was used as a positive control. Ex: 633 nm, Em: ≥638 nm. The scale bar represents 20 µm.
PANC-1 cells were seeded with cover slip in a 6-well cell culture plate (SPL life Science, Gyeonggi-do, Republic of Korea) and incubated for 24 h under 37 °C and 5% CO2 prior to the experiment. […] The fluorescence images were detected by confocal microscope (TCS-SP8 confocal laser scanning microscope, Leica, Germany). Fluorescence signal was obtained by excitation at 633 nm and emission at ≥638 nm.

Cc1ccc(-c2nc3ccccc3c3cc4ccccn4c23)cc1 [PD3, 6-(p-tolyl)indolizino[3,2-c]quinoline]
Binding specificity to PDEδ by in-gel fluorescence (PDEδ): specifically binds to PDEδ in bacterial lysates | RAS localisation at the plasma membrane (PM) (PANC-1 cells): red fluorescence was effectively reduced at the PM
